Test results from patent US10675284B2, “Treatment of B-cell malignancies by a combination JAK and PI3K inhibitors” (Incyte Corporation, priority 2014, dated 2020).
Like-named read-outs stand apart in the source and are kept apart here.

What was measured:
[1] = biological target: human JAK1 (a.a. 837-1142) (Homo sapiens, UniProt P23458); assay: In vitro JAK kinase assay (HTRF), JAK1; format: biochemical
[2] = biological target: human JAK2 (a.a. 828-1132) (Homo sapiens (Human), UniProt O60674); assay: In vitro JAK kinase assay (HTRF), JAK2; format: biochemical; details: IC50 ratio, 1 mM ATP
human JAK2 (a.a. 828-1132), sequence (O60674 828-1132): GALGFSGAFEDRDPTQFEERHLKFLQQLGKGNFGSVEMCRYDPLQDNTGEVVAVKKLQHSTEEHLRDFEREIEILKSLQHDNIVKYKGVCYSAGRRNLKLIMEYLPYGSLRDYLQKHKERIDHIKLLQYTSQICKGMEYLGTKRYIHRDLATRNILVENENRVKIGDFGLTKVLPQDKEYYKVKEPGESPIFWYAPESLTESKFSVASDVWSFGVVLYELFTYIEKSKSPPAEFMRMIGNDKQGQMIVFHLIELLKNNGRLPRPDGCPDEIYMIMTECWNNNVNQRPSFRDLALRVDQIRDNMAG

Pfeiffer cells = assay: Western blot analysis of Pfeiffer cells; format: cell-based, human; details: 24 hours
Description: The following materials and methods were used in the Western blot analysis infra. Cells (5 million) were lysed in a 300 μl volume of lysis buffer. Soluble fractions were collected by centrifugation. 25 μl of cell lysate were loaded into Tris-Glycine polyacrylamide gels and subjected to electrophoresis. The proteins were transferred into nitrocellulose membrane and probed with antibodies from Cell Signaling Technology for the following proteins: phospho-Stat3 Y705, phospho-Akt 5473, pim1, pim2, pim3, c-myc, phospho-p70S6K, phosho-S6, phospho-Bad S112 and actin.
IL6 and IL10 promote cell survival through the expression of Pim2, which is dependent on JAK1 activity.
Extracts were analyzed by Western blot for pAKT and pSTAT3.

human JAK1 (a.a. 837-1142), sequence (P23458 whole entry, looked up): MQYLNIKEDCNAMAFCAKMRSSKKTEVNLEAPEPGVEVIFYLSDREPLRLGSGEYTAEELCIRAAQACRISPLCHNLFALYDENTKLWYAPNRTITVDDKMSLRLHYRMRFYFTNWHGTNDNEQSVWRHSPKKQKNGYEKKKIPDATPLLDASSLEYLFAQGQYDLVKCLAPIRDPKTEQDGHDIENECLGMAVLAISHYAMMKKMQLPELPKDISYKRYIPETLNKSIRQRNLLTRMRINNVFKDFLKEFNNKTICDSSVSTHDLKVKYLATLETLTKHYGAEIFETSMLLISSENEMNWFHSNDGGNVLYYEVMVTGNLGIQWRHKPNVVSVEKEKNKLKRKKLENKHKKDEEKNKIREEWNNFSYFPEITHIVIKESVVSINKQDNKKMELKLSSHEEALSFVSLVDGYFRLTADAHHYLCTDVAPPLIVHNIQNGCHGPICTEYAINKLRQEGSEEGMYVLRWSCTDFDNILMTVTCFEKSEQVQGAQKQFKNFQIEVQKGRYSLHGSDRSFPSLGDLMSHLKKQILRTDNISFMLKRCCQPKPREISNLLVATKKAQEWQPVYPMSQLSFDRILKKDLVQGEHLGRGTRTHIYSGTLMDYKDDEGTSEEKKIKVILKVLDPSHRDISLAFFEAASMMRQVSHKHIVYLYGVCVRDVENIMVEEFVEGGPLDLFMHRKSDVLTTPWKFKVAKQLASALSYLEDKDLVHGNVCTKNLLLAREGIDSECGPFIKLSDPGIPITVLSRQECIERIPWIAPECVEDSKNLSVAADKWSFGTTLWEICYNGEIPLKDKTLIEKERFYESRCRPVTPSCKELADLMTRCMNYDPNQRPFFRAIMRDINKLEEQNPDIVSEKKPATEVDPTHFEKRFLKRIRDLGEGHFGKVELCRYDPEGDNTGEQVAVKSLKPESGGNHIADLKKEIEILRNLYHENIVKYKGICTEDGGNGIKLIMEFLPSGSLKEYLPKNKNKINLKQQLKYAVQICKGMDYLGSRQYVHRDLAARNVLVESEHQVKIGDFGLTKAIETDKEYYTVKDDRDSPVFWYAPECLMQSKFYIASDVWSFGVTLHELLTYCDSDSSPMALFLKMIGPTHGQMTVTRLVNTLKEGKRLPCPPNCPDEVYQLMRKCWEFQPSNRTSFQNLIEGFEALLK

Row | SMILES | IC50 ([1]; 1 mM ATP, read-out: JAK1 IC50) [nM] | JAK2/JAK1 [2] | IL10-induced expression of Pim2 (Pfeiffer cells) | IC50 [1] [nM]
1 | C[C@H](O)CNCc1cc(OC2CCN([C@H]3C[C@](CC#N)(n4cc(-c5ncnc6[nH]ccc56)cn4)C3)CC2)nc(C(F)(F)F)c1 [Compound 25, {trans-3-(4-{[4-({[(2S)-2-hydroxypropyl]amino}methyl)-6-(trifluoromethyl)pyridin-2-yl]oxy}piperidin-1-yl)-1-[4-(7H-pyrrolo[2,3-d]pyrimidin-4-yl)-1H-pyrazol-1-yl]cyclobutyl}acetonitrile] | < 10 | >10 |  | 
2 | N#CCC(CN1CCN(C(=O)c2ccc(C#N)cc2F)CC1)n1cc(-c2ncnc3[nH]ccc23)cn1 (stereo not shown) [Compound 5, 4-[(4-{3-cyano-2-[4-(7H-pyrrolo[2,3-d]pyrimidin-4-yl)-1H-pyrazol-1-yl]propyl}piperazin-1-yl)carbonyl]-3-fluorobenzonitrile] | < 10 | >10 |  | 
3 | N#CCC1(n2cc(-c3ncnc4[nH]ccc34)cn2)CN(C2CCN(C(=O)c3ccnc(C(F)(F)F)c3F)CC2)C1 [Compound 7, {1-{1-[3-Fluoro-2-(trifluoromethyl)isonicotinoyl]piperidin-4-yl}-3-[4-(7H-pyrrolo[2,3-d]pyrimidin-4-yl)-1H-pyrazol-1-yl]azetidin-3-yl}acetonitrile] | < 10 | >10 | blocked | 
4 | N#CCC1(n2cc(-c3ncnc4[nH]ccc34)cn2)CN([C@H]2CC[C@@H](Oc3cc(CN4CC[C@H](O)C4)cc(C(F)(F)F)n3)CC2)C1 [Compound 22, {1-(cis-4-{[4-{[(3S)-3-hydroxypyrrolidin-1-yl]methyl}-6-(trifluoromethyl)pyridin-2-yl]oxy}cyclohexyl)-3-[4-(7H-pyrrolo[2,3-d]pyrimidin-4-yl)-1H-pyrazol-1-yl]azetidin-3-yl}acetonitrile] | < 10 | >10 |  | 
5 | N#CCC1(n2cc(-c3ncnc4[nH]ccc34)cn2)CN([C@H]2CC[C@@H](Oc3cc(CCO)nc(C(F)(F)F)n3)CC2)C1 [Compound 18, {1-(cis-4-{[6-(2-hydroxyethyl)-2-(trifluoromethyl)pyrimidin-4-yl]oxy}cyclohexyl)-3-[4-(7H-pyrrolo[2,3-d]pyrimidin-4-yl)-1H-pyrazol-1-yl]azetidin-3-yl}acetonitrile] | < 10 | >10 |  | 
6 | N#CCC(C1CCN(c2cccc(Cl)n2)C1)n1cc(-c2ncnc3[nH]ccc23)cn1 (single isomer, unassigned) [Compound 3, 3-[1-(6-chloropyridin-2-yl)pyrrolidin-3-yl]-3-[4-(7H-pyrrolo[2,3-d]pyrimidin-4-yl)-1H-pyrazol-1-yl]propanenitrile] |  | >10 |  | < 10
7 | N#CCC1(n2cc(-c3ncnc4[nH]ccc34)cn2)CN(C2CCN(C(=O)Nc3ccc(F)cc3C(F)(F)F)CC2)C1 [Compound 8, 4-{3-(cyanomethyl)-3-[4-(7H-pyrrolo[2,3-d]pyrimidin-4-yl)-1H-pyrazol-1-yl]azetidin-1-yl}-N-[4-fluoro-2-(trifluoromethyl)phenyl]piperidine-1-carboxamide] | < 10 | >10 |  | 
8 | N#CCC1(n2cc(-c3ncnc4[nH]ccc34)cn2)CN([C@H]2CC[C@@H](Oc3cc(CN4CC[C@@H](O)C4)cc(C(F)(F)F)n3)CC2)C1 [Compound 21, {1-(cis-4-{[4-{[(3R)-3-hydroxypyrrolidin-1-yl]methyl}-6-(trifluoromethyl)pyridin-2-yl]oxy}cyclohexyl)-3-[4-(7H-pyrrolo[2,3-d]pyrimidin-4-yl)-1H-pyrazol-1-yl]azetidin-3-yl}acetonitrile] | < 10 | >10 |  | 
9 | C[C@@H](O)CNCc1cc(OC2CCN([C@H]3C[C@](CC#N)(n4cc(-c5ncnc6[nH]ccc56)cn4)C3)CC2)nc(C(F)(F)F)c1 [Compound 24, {trans-3-(4-{[4-({[(2R)-2-hydroxypropyl]amino}methyl)-6-(trifluoromethyl)pyridin-2-yl]oxy}piperidin-1-yl)-1-[4-(7H-pyrrolo[2,3-d]pyrimidin-4-yl)-1H-pyrazol-1-yl]cyclobutyl}acetonitrile] | < 10 | >10 |  | 
10 | CC(C)(O)c1cc(O[C@H]2CC[C@@H](N3CC(CC#N)(n4cc(-c5ncnc6[nH]ccc56)cn4)C3)CC2)nc(C(F)(F)F)c1 [Compound 20, {1-(cis-4-{[4-(1-hydroxy-1-methylethyl)-6-(trifluoromethyl)pyridin-2-yl]oxy}cyclohexyl)-3-[4-(7H-pyrrolo[2,3-d]pyrimidin-4-yl)-1H-pyrazol-1-yl]azetidin-3-yl}acetonitrile] | < 10 | >10 |  | 
11 | C[C@@H](O)c1nc2cnc3ccsc3c2n1[C@H]1CC[C@H](CC#N)OC1 [Compound 1, ((2R,5S)-5-{2-[(1R)-1-hydroxyethyl]-1H-imidazo[4,5-d]thieno[3,2-b]pyridin-1-yl}tetrahydro-2H-pyran-2-yl)acetonitrile] | < 100 | >10 |  | 
12 | CCNCc1cc(O[C@H]2CC[C@@H](N3CC(CC#N)(n4cc(-c5ncnc6[nH]ccc56)cn4)C3)CC2)nc(C(F)(F)F)c1 [Compound 19, {1-(cis-4-{[4-[(ethylamino)methyl]-6-(trifluoromethyl)pyridin-2-yl]oxy}cyclohexyl)-3-[4-(7H-pyrrolo[2,3-d]pyrimidin-4-yl)-1H-pyrazol-1-yl]azetidin-3-yl}acetonitrile] | < 10 | >10 |  | 
13 | N#CC[C@]1(n2cc(-c3ncnc4[nH]ccc34)cn2)C[C@H](N2CCC(Oc3cc(CN4CCC[C@H]4CO)cc(C(F)(F)F)n3)CC2)C1 [Compound 12, {trans-3-(4-{[4-{[(2S)-2-(hydroxymethyl)pyrrolidin-1-yl]methyl}-6-(trifluoromethyl)pyridin-2-yl]oxy}piperidin-1-yl)-1-[4-(7H-pyrrolo[2,3-d]pyrimidin-4-yl)-1H-pyrazol-1-yl]cyclobutyl}acetonitrile] | < 10 | >10 |  | 
14 | N#CC[C@]1(n2cc(-c3ncnc4[nH]ccc34)cn2)C[C@H](N2CCN(C(=O)c3ccnc(C(F)(F)F)n3)CC2)C1 [Compound 10, [trans-1-[4-(7H-pyrrolo[2,3-d]pyrimidin-4-yl)-1H-pyrazol-1-yl]-3-(4-{[2-(trifluoromethyl)pyrimidin-4-yl]carbonyl}piperazin-1-yl)cyclobutyl]acetonitrile] | < 10 | >10 |  | 
15 | N#CCC(CN1CCN(C(=O)c2ccc(C#N)cc2F)CC1)n1ccc(-c2ncnc3[nH]ccc23)c1 (stereo not shown) [Compound 6, 4-[(4-{3-cyano-2-[3-(7H-pyrrolo[2,3-d]pyrimidin-4-yl)-1H-pyrrol-1-yl]propyl}piperazin-1-yl)carbonyl]-3-fluorobenzonitrile] | < 10 | >10 |  | 
16 | N#CC[C@]1(n2cc(-c3ncnc4[nH]ccc34)cn2)C[C@H](N2CCC(Oc3cc(CN4CC(O)C4)cc(C(F)(F)F)n3)CC2)C1 [Compound 11, {trans-3-(4-{[4-[(3-hydroxyazetidin-1-yl)methyl]-6-(trifluoromethyl)pyridin-2-yl]oxy}piperidin-1-yl)-1-[4-(7H-pyrrolo[2,3-d]pyrimidin-4-yl)-1H-pyrazol-1-yl]cyclobutyl}acetonitrile] | < 10 |  |  | 
17 | N#CC[C@]1(n2cc(-c3ncnc4[nH]ccc34)cn2)C[C@H](N2CCC(Oc3cc(CN4CCC[C@@H]4CO)cc(C(F)(F)F)n3)CC2)C1 [Compound 13, {trans-3-(4-{[4-{[(2R)-2-(hydroxymethyl)pyrrolidin-1-yl]methyl}-6-(trifluoromethyl)pyridin-2-yl]oxy}piperidin-1-yl)-1-[4-(7H-pyrrolo[2,3-d]pyrimidin-4-yl)-1H-pyrazol-1-yl]cyclobutyl}acetonitrile] | < 10 | >10 |  | 
18 | N#CCC(C1CCN(c2nc3cccnc3o2)C1)n1cc(-c2ncnc3[nH]ccc23)cn1 (stereo not shown) [Compound 4, 3-(1-[1,3]oxazolo[5,4-b]pyridin-2-ylpyrrolidin-3-yl)-3-[4-(7H-pyrrolo[2,3-d]pyrimidin-4-yl)-1H-pyrazol-1-yl]propanenitrile] | < 10 | >10 |  | 
19 | N#CC[C@]1(n2cc(-c3ncnc4[nH]ccc34)cn2)C[C@H](N2CCC(Oc3cc(CCO)cc(C(F)(F)F)n3)CC2)C1 [Compound 26, {trans-3-(4-{[4-(2-hydroxyethyl)-6-(trifluoromethyl)pyridin-2-yl]oxy}piperidin-1-yl)-1-[4-(7H-pyrrolo[2,3-d]pyrimidin-4-yl)-1H-pyrazol-1-yl]cyclobutyl}acetonitrile] | < 10 | >10 |  | 
20 | C[C@@H](CO)NCc1cc(OC2CCN([C@H]3C[C@](CC#N)(n4cc(-c5ncnc6[nH]ccc56)cn4)C3)CC2)nc(C(F)(F)F)c1 [Compound 23, {trans-3-(4-{[4-({[(1S)-2-hydroxy-1-methylethyl]amino}methyl)-6-(trifluoromethyl)pyridin-2-yl]oxy}piperidin-1-yl)-1-[4-(7H-pyrrolo[2,3-d]pyrimidin-4-yl)-1H-pyrazol-1-yl]cyclobutyl}acetonitrile] | < 10 | >10 |  | 
21 | N#CC[C@H](C1CCCC1)n1cc(-c2ncnc3[nH]ccc23)cn1 [ruxolitinib, (3R)-3-cyclopentyl-3-[4-(7H-pyrrolo[2,3-d]pyrimidin-4-yl)-1H-pyrazol-1-yl]propanenitrile, reference compound] |  |  | blocked | 
22 | N#CCC1(n2cc(-c3ncnc4[nH]ccc34)cn2)CN(C2CCN(C(=O)c3ccnc(C(F)(F)F)n3)CC2)C1 [Compound 9, [3-[4-(7H-pyrrolo[2,3-d]pyrimidin-4-yl)-1H-pyrazol-1-yl]-1-(1-{[2-(trifluoromethyl)pyrimidin-4-yl]carbonyl}piperidin-4-yl)azetidin-3-yl]acetonitrile] | < 10 | >10 |  | 
